Entries after “also recorded” stand apart in the source; their conditions may differ.
How the values were obtained:
BALB mice = assay: Novel open field test after acute stress (Yohimibine injection); assay type: in vivo; conditions: 15 mg/kg/day i.p., three weeks of treatment, after Yohimibine i.p. 1.25 mg/kg, p<0.05 adaptogenic mixture, p<0.0.1 escitalopram
Procedure: FIG. 2A: Effect of treatment in the novel open field Test following one week of treatment. FIG. 2B: Effect of treatment in the novel open field Test following two weeks of treatment. […] Mice were treated through i.p. injection with the adaptogenic mixture (15 mg/kg/day), escitalopram (15 mg/kg/day) or vehicle. The acute stress was obtained with Yohimibine i.p injection, a drug known to activate a stress-reaction (Vasa et al., 2009). […] The Novel Open Field is another well-established test of anxiety-related behavior in rodents. The Open Field area generally consists of an empty and bright square arena, surrounded by walls to prevent the rodent from escaping. The rodent is usually placed in the center of the arena and its behavior recorded over a chosen period. The Novel Open Field task approaches the conflict between the innate fear that rodents have of the central area of a novel or brightly lit open field versus their desire to explore new environments. When anxious, the natural tendency of rodents is to prefer staying close to the walls. In this context, anxiety-related behavior is measured by the degree to which the rodent avoids the center of the arena.

ICR mice = assay: Elevated plus maze after maternal separation and unpredictable chronic mild stress, treatment after stress; assay type: in vivo; conditions: stressed ICR mice, 15 mg/kg i.p., 21 days, p<0.05
Procedure: On the day of parturition, PND 0 (postnatal day), litters were randomly assigned to undergo MS or to be standard facility reared (SFR) controls. SFR animals were left undisturbed during the entire stress manipulation (both maternal separation and unpredictable chronic mild stress manipulation), except for routine cage maintenance performed once a week. MS procedure was carried out once per day from PND 1-14. The MS procedure was performed by removing the pups from the home cage and placing them together in a separate clean cage placed on a heating pad (30-33° C.) in order to keep the pups in a temperature close to the dam's natural body temperature. 6 hours later, pups were returned to their home cage. […] Elevated plus-maze: Each mouse was placed in the center of the elevated plus maze and his behavior was recorded for the duration of 5 minutes. […] Subsequent to the stress manipulations, anxiety-like behavior was assessed via the elevated plus maze in order to assess the effect of the stress manipulations. […] Following three weeks of treatment with the relevant drug or vehicle, anxiety-like behavior was assessed via the elevated plus maze. 48 hours thereafter and while mice were still receiving treatment, blood samples were collected following acute stress and Corticosterone levels were measured via radio immunoassay (RIA) assay. […]

Corticosterone [1] = assay: Corticosterone levels following acute restraint stress (RIA), treatment after chronic stress; assay type: in vivo; conditions: stressed ICR mice, 15 mg/kg i.p., 3 weeks, p<0.05 adaptogenic mixture, p<0.01 escitalopram
Procedure: In order to estimate the endocrinology reaction to acute stress mice were first placed in restraint. Restraint stress is a well documented stressor that initiates an acute transient increase in plasma ACTH and Corticosterone, usually peaking during the course of a 60 min stress exposure. Therefore, following 60 minutes of subjection to restraint stress, blood samples were collected into EDTA-coated tubes from the facial vein. All blood samples were kept on ice and later centrifuged for 10 min at 10000 rpm at 4°. Plasma was transferred to clean, labeled 1.5 ml microcentrifuge tubes. All plasma samples were stored frozen at −20 C.° until the determination of Corticosterone via RIA. Subsequent to the stress manipulations, anxiety-like behavior was assessed via the elevated plus maze in order to assess the effect of the stress manipulations. […] Following three weeks of treatment with the relevant drug or vehicle, anxiety-like behavior was assessed via the elevated plus maze. 48 hours thereafter and while mice were still receiving treatment, blood samples were collected following acute stress and Corticosterone levels were measured via radio immunoassay (RIA) assay. […] Anxiety-related behaviors were assessed using the elevated-plus maze and indicated anxiogenic effect of the stress manipulation. […]

[2] = tested on: mice subjected to maternal separation and unpredictable mild stress; assay: Elevated plus maze, treatment during stress; assay type: in vivo; conditions: 15 mg/kg i.p., 28 days during stress; control (saline) 44 seconds; p<0.05
Procedure: (§1) The day following parturition, postnatal day (PND) 1, the litters underwent a Maternal Separation (MS) procedure that was carried out once a day from PND 1-14. At the age of 21 days, all pups were weaned and sexed. 90 male mice were tagged, weighed, and separated into cages of up to five mice per cage, assigned randomly into four groups of treatment as previously described. Between the age of 28 and 56 days (Adolescence), mice were subjected to an Unpredictable Mild Stress paradigm. In this experiment three different stressors were used—all mice were subjected once a day to one of the following stressors: restrainers; placement in an empty cage with water at the bottom; or inversion of light/dark cycle. To prevent habituation and to provide an unpredictable feature to the stressors, every day different stressor was administered for four hours, at different time points of the day. During the entire stress paradigm, drugs were administrated through i.p. injection of the relevant treatment, for the duration of 28 days. Upon reaching adulthood and following four weeks of treatment, behavior, peripheral hormones and brain monoamines were measured in order to assess the effects of the novel treatment. […]

[3] = tested on: mice subjected to maternal separation and unpredictable mild stress; assay: Sucrose test, treatment during stress; assay type: in vivo; conditions: escitalopram group (15 mg/kg as previously described) i.p., 28 days during stress; control (saline) 51 ml; p<0.05
Procedure: The day following parturition, postnatal day (PND) 1, the litters underwent a Maternal Separation (MS) procedure that was carried out once a day from PND 1-14. At the age of 21 days, all pups were weaned and sexed. 90 male mice were tagged, weighed, and separated into cages of up to five mice per cage, assigned randomly into four groups of treatment as previously described. Between the age of 28 and 56 days (Adolescence), mice were subjected to an Unpredictable Mild Stress paradigm. In this experiment three different stressors were used—all mice were subjected once a day to one of the following stressors: restrainers; placement in an empty cage with water at the bottom; or inversion of light/dark cycle. To prevent habituation and to provide an unpredictable feature to the stressors, every day different stressor was administered for four hours, at different time points of the day. During the entire stress paradigm, drugs were administrated through i.p. injection of the relevant treatment, for the duration of 28 days. Upon reaching adulthood and following four weeks of treatment, behavior, peripheral hormones and brain monoamines were measured in order to assess the effects of the novel treatment. […] After the 12 hours, the amount of ordinary water, sucrose water and food eaten by the mouse, was calculated. […]

Corticosterone [4] = assay: Corticosterone levels following acute restraint stress (RIA), treatment during stress; assay type: in vivo, mice; conditions: escitalopram group (15 mg/kg as previously described), 28 days during stress; control 80.9 ng/ml; p<0.05
Procedure: as §1, with “treatment. In order to estimate the endocrinological reaction to acute stress, mice were first placed in restrainers.” for “treatment.”

[5] = tested on: Brain-derived neurotrophic factor (BDNF); assay: Hippocampal BDNF levels by EIA, treatment during stress; assay type: in vivo, mice; conditions: escitalopram group (15 mg/kg as previously described), 28 days during stress; control (saline) 12 pc/μg; p<0.05
Procedure: The day following parturition, postnatal day (PND) 1, the litters underwent a Maternal Separation (MS) procedure that was carried out once a day from PND 1-14. At the age of 21 days, all pups were weaned and sexed. 90 male mice were tagged, weighed, and separated into cages of up to five mice per cage, assigned randomly into four groups of treatment as previously described. Between the age of 28 and 56 days (Adolescence), mice were subjected to an Unpredictable Mild Stress paradigm. In this experiment three different stressors were used—all mice were subjected once a day to one of the following stressors: restrainers; placement in an empty cage with water at the bottom; or inversion of light/dark cycle. To prevent habituation and to provide an unpredictable feature to the stressors, every day different stressor was administered for four hours, at different time points of the day. During the entire stress paradigm, drugs were administrated through i.p. injection of the relevant treatment, for the duration of 28 days. Upon reaching adulthood and following four weeks of treatment, behavior, peripheral hormones and brain monoamines were measured in order to assess the effects of the novel treatment.
At the end of the experiment, all treated mice were sacrificed. The brains of the mice were placed in a mold on ice. […] Brain-derived neurotrophic factor (BDNF) was measured by EIA. […]

C57BL/6 mice = assay: Open Field Test in mice after chronic stress (MSP); assay type: in vivo
Procedure: C57BL/6 male and female infant mice were subjected to chronic stress (MSP) by separation from the dam for 6 hours per day from day 1 to day 14. Anxiety behavior was tested after different anxiolytic treatments. The mice received a daily i.p. injection from day 28 of age for two weeks, of one of the following drugs: Citalopram (10 mg/kg), or the adaptogenic composition of the invention comprising Hawthorn fruit, wheat grain and Lilly Bulb (10 mg/kg). The anxiety behavior was tested in the Open Field Test.

| Structure (SMILES) | Time spent inside the field of the control group in comparison to the treated group, novel open field (BALB mice) | Time spent in the open arms in comparison to control group, elevated plus maze (ICR mice) | Corticosterone levels following acute restraint stress in comparison to control group (Corticosterone [1]) | Time spent in the open arms, Elevated Plus Maze [2] | Sucrose consumption, sucrose test [3] | Corticosterone levels following acute restraint stress (Corticosterone [4]) | BDNF levels (hippocampus) [5] | Time inside the center of the arena, Open Field Test (C57BL/6 mice; MSP (chronically stressed) C57BL/6 mice, 10 mg/kg i.p. daily for two weeks, saline 1.8 seconds, n=16) | Entries to the inside of the arena, Open Field Test (C57BL/6 mice; MSP C57BL/6 mice, 10 mg/kg i.p. daily for two weeks, saline 1.6 times, n=16) | Time inside the center of the arena, Open Field Test (C57BL/6 mice; treated, unstressed mice, 10 mg/kg i.p., saline unstressed 4.5 seconds) |
| --- | --- | --- | --- | --- | --- | --- | --- | --- | --- | --- |
| CN(C)CCC[C@@]1(c2ccc(F)cc2)OCc2cc(C#N)ccc21 [escitalopram, Escitalopram] | significantly less pronounced | significantly more time; also recorded: same effect | significantly lower; also recorded: same effect | 64 s | 55 mL | 77.3 ng/mL | 16 pc/μg |  |  |  |
| CN(C)CCCC1(c2ccc(F)cc2)OCc2cc(C#N)ccc21 (stereo not shown) [Citalopram] |  |  |  |  |  |  |  | 2.5 s | 2.4 times | 4.6 s |

Source: patent US9320772B2, “Herbal composition for treating anxiety related conditions” (OPMOP LTD., priority 2010, dated 2016)
